Data as given in patent publication US8735432B2, “N-(Heteroaryl)-1-heteroarylalky1-1H-indole-2-carboxamide derivatives, preparation and therapeutic use thereof” (Sanofi, priority 2005, dated 2014).

What was measured:
[1] = target: T1, TRPV1 receptors (Mus musculus, UniProt Q704Y3); assay: Test of mouse corneal irritation (capsaicin ocular instillation); format: in vivo; details: percentage of protection, pretreatment time t = 1 h, capsaicin 2 μl of 160 μM in the eye
T1 construct: from tissue; host or cells: living mouse, cornea (C fibres)
Experimental: Test of Mouse Corneal Irritation
The irritant nature of capsaicin is readily assessed on the cornea since this organ is one of the organs most densely innervated with C fibres. In this context, from preliminary experiments, the application of a very small amount of capsaicin (2 μl at a concentration of 160 μM) to the surface of the cornea of an animal leads to a certain number of stereotypic behavioral traits associated with irritation, which are easy to detect. Among these, the following are noted: blinking of the eye, rubbing of the instilled eye with the ipsilateral front paw, rubbing of the face with both front paws, scratching of the ipsilateral face with the hind paw. […] This aspect is moreover also normal. […]
In practice, the test product is administered orally and, with a delay (pretreatment time: t) that depends on the pharmacokinetic data, the animal receives an ocular instillation of 2 μl of a 160 μM capsaicin solution prepared as indicated above. During a 2-minute observation following the instillation, the number of times the instilled eye is rubbed with the ipsilateral front paw is recorded.
For a given animal, the percentage of protection is calculated as follows: P=100−((number of scratching actions observed/mean number of scratching actions for the group treated with the solvent)×100) […]

[2] = target: T2, TRPV1 receptor (Rattus norvegicus, UniProt O35433); assay: Inhibition of the current induced with capsaicin on rat DRGs (whole-cell patch-clamp); format: cell-based; details: DRG neuron; compound at 3 nM; inhibition of control capsaicin response (300 nM); newborn rat DRG neurons; read-out: % inhibition as a DRG patch
T2 construct: The neurons of the DRG naturally express the TRPV1 receptor; endogenous in cells; host or cells: primary culture of newborn rat dorsal root ganglion neurons
Experimental: Test of Inhibition of the Current Induced with Capsaicin on Rat DRGs
Primary Culture of Rat Dorsal Root Ganglion (DRG) Cells:
The neurons of the DRG naturally express the TRPV1 receptor.
The primary cultures of newborn rat DRGs are prepared using 1-day-old rats. Briefly, after dissection, the ganglions are trypsinized and the cells dissociated by mechanical trituration. The cells are resuspended in an Eagle basal culture medium containing 10% fetal calf serum, 25 mM KCl, 2 mM glutamine, 100 μg/ml gentamicin and 50 ng/ml of NGF, and then deposited on glass slides coated with laminin (0.25×10^6 cells per slide), which are then placed in Corning 12-well dishes. The cells are incubated at 37° C. in a humidified atmosphere containing 5% CO2 and 95% air. […]
The measuring chambers (volume 800 μl) containing the cell preparation are placed on the platform of an inverted microscope (Olympus IMT2) equipped with Hoffman optics (Modulation Contrast, New York) and observed at a magnification of 400×. […] The overall currents (membrane potential set at −60 mV) are recorded with an Axopatch 1D amplifier (Axon Instruments, Foster City, Calif.), connected to a PC running the Pclamp8 software (Axon Instrument). The current plots are recorded on paper and simultaneously digitized (sampling frequency 15 to 25 Hz) and acquired on the hard drive of the PC. […]

T1 sequence (Q704Y3 whole entry): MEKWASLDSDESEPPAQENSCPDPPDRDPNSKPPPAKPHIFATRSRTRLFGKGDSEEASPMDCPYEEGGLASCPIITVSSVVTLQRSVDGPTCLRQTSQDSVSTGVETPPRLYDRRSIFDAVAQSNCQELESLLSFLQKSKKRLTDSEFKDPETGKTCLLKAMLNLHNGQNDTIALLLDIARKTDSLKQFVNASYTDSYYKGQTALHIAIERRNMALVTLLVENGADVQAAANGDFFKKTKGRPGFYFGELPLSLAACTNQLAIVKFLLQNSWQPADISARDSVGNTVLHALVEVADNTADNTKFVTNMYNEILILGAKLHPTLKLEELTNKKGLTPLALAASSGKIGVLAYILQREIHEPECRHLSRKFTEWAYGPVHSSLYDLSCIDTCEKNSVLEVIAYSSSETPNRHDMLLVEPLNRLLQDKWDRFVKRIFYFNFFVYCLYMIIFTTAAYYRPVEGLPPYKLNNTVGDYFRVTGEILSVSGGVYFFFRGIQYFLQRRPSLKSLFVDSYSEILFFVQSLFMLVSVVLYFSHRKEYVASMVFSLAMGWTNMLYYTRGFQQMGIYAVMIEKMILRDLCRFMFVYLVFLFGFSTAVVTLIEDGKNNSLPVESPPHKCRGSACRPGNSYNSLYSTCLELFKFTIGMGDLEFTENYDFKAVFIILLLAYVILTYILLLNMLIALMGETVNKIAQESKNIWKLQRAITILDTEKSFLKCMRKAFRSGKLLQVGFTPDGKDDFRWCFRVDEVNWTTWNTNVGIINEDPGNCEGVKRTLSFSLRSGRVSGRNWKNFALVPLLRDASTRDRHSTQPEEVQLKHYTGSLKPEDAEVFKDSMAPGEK
T2 sequence (O35433 whole entry): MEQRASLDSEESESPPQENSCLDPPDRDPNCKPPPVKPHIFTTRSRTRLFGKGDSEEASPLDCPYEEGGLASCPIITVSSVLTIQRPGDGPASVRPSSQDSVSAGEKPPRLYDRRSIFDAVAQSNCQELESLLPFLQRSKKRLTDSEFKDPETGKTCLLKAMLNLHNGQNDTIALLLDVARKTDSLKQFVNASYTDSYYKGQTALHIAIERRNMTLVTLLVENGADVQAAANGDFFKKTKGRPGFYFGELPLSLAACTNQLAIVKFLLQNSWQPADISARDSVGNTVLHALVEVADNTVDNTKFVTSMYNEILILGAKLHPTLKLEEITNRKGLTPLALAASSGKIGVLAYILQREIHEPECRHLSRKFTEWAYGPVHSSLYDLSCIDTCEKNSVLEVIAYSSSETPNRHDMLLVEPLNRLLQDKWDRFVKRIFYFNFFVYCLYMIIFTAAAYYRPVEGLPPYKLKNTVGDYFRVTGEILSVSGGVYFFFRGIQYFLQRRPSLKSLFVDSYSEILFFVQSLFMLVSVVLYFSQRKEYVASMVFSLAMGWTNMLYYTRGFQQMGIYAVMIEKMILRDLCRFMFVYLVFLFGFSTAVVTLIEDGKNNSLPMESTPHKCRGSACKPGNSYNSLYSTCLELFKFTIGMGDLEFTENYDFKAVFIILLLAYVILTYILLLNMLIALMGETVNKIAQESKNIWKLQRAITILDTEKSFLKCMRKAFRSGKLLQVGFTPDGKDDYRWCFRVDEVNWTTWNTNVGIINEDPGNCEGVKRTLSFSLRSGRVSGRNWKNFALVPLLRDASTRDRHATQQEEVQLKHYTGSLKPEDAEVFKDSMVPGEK

With Cc1cnc(C)c(Cn2c(C(=O)Nc3ccc4c(c3)nc(C)n4C)cc3cc(F)ccc32)n1 as the molecule, how does the melting point read?
Its melting point is 269 to 275 °C.

Which melting point does the source give for Cc1ncc(Cn2c(C(=O)Nc3ccc4c(c3)nc(C)n4C)cc3cc(F)ccc32)nc1C here?
Its melting point is 226 to 228 °C.

Which melting point does the source give for Cc1cnc(Cn2c(C(=O)Nc3ccc4c(c3)nc(C)n4C)cc3cc(F)ccc32)c(C)n1 here?
The melting point was 266 to 269 °C.

For Cl.Cn1ccc2cc(NC(=O)c3cc4cc(F)ccc4n3Cc3ccncc3)ccc21 [Compound 3, N-(1-Methyl-1H-indol-5-yl)-5-fluoro-1-[(pyrid-4-yl)methyl]-1H-indole-2-carboxamide hydrochloride (1:1)], which “% P - (t) at 1 mg/kg (po)” value [1] is on record?
Its value is 44% - (1 h).

Which inhibition at 0.003 µM [2] does the source give for Cc1nc2cc(NC(=O)c3cc4cc(C(C)(C)C)ccc4n3Cc3ccncc3)ccc2n1C.Cl.Cl [Compound 6, N-(1,2-Dimethyl-1H-benzimidazol-5-yl)-5-t-butyl-1-[(pyrid-4-yl)methyl]-1H-indole-2-carboxamide hydrochloride (1:2)] here?
The inhibition at 0.003 µM was 80%.

What about the “% P - (t) at 1 mg/kg (po)” value [1] of the same molecule?
The value was 24% - (1 h).
